Measured values: patent US11207310B2 (PRILENIA NEUROTHERAPEUTICS LTD., priority 2016, dated 2021)
Like-named read-outs stand apart in the source and are kept apart here.

Tests used:
[1] = system: patients with HD; details: early HD, week 52
[2] = system: patients with HD
Text: There are six basic ADLs: eating, bathing, dressing, toileting, transferring (functional mobility) and continence. ADL is scored as follows: a patient requiring total care=0, a patient able to carry out gross tasks only=1, a patient having minimal impairment=2, a patient with no impairment (normal)=3.
(§1) The TFC scale of the UHDRS is a standardized scale used to assess 5 functional domains associated with disability shown below (occupation, finances, domestic chores (e.g. laundry, washing dishes), activities of daily living, and care level). The TFC score has a range of 0-13 and is a well-established endpoint for trials aiming disease progression. […] The TFC score is accepted by regulators and often considered the most widely accepted tool for disease procession in HD patients. Additionally, TFC is considered the gold standard for measuring HD rate of functional decline. […] The floor and ceiling effects make TFC scores more sensitive to change in early stage HD than in late stage HD.
Activities of Daily Living (ADL): 0=total care, 1=gross tasks only, 2=minimal impairment, 3=normal.

[3] = system: patients with HD; details: for TFC Care Level, Δ to placebo: 52 weeks, Early Stage HD (TFC≥7); for Change from baseline in UHDRS TFC Care Level, Δ to placebo: Week 52
Text: as §1
Care level: 0=fill time skill nursing, 1=home or chronic care, 2=home.

[4] = system: patients with HD; details: Week 26
Experimental: The HD-QoL is a standardized instrument for measuring health-related quality of life. […] It is a validated disease-specific measure designed for HD, and can provide a summary score of overall health-related quality of life, as well as scores on several discrete scales. […] HD-QoL can be used across the full spectrum of HD.
The change from baseline in HD-QoL and in EQSD-5L was analyzed using an Analysis of Covariance (ANCOVA) Model. The model includes the following fixed effects: treatment, center, neuroleptic use or no use, and baseline HD-QoL or EQSD-5L score. The last observation carried forward (LOCF) was applied for these endpoints for early terminated subjects.

[5] = 67.5 mg bid, Stage 2 BL TFC 7-10
[6] = 112.5 mg bid, Stage 2 BL TFC 7-10

Compound: CCCN1CCC(c2cccc(S(C)(=O)=O)c2)CC1 [pridopidine, 4-[3-(methylsulfonyl)phenyl]-1-propyl-piperidine]
- Wk 52 Δ to placebo: UHDRS TMS Gait ([1]; 45 mg bid): −0.21
- Wk 52 Δ to placebo: UHDRS TMS Gait ([1]; 67.5 mg bid): −0.17
- Wk 52 Δ to placebo: UHDRS TMS Gait ([1]; 90 mg bid): −0.17
- Wk 52 Δ to placebo: UHDRS TMS Gait ([1]; 112.5 mg bid): −0.06
- Change from baseline in UHDRS TFC ADL, Δ to Placebo ([2]; 45 mg bid, Week 26, ALL): 0.12
- UHDRS TFC ADL, change from baseline, Δ to placebo ([2]; 45 mg bid, Week 26, BL TFC<7, p value 0.3596): −0.19
- UHDRS TFC ADL, change from baseline, Δ to placebo ([2]; 45 mg bid, Week 26, BL TFC≥7, p value 0.0176): 0.24
- Change from baseline in UHDRS TFC ADL, Δ to Placebo ([2]; 45 mg bid, Week 26, Stage 1 BL TFC 11-13): 0.65
- Change from baseline in UHDRS TFC ADL, Δ to Placebo ([2]; 45 mg bid, Week 52, ALL): 0.14
- UHDRS TFC ADL, change from baseline, Δ to placebo ([2]; 45 mg bid, Week 52, BL TFC<7, p value 0.178): −0.33
- UHDRS TFC ADL, change from baseline, Wk 52 Δ to placebo ([2]; 45 mg bid, Week 52, BL TFC≥7, p value 0.0019): 0.35
- Change from baseline in UHDRS TFC ADL, Δ to Placebo ([2]; 45 mg bid, Week 52, Stage 1 BL TFC 11-13): 0.62
- Change from baseline in UHDRS TFC ADL, Δ to Placebo ([2]; 45 mg bid, Week 52, Stage 2 BL TFC 7-10): 0.27
- Change from baseline in UHDRS TFC ADL, Δ to Placebo ([2]; 67.5 mg bid, Week 26, ALL): 0.09
- UHDRS TFC ADL, change from baseline, Δ to placebo ([2]; 67.5 mg bid, Week 26, BL TFC<7, p value 0.8518): −0.04
- UHDRS TFC ADL, change from baseline, Δ to placebo ([2]; 67.5 mg bid, Week 26, BL TFC≥7, p value 0.1132): 0.16
- Change from baseline in UHDRS TFC ADL, Δ to Placebo ([2]; 67.5 mg bid, Week 26, Stage 1 BL TFC 11-13): 0.34
- Change from baseline in UHDRS TFC ADL, Δ to Placebo ([2]; 67.5 mg bid, Week 52, ALL): 0.03
- UHDRS TFC ADL, change from baseline, Δ to placebo ([2]; 67.5 mg bid, Week 52, BL TFC<7, p value 0.0671): −0.4
- UHDRS TFC ADL, change from baseline, Wk 52 Δ to placebo ([2]; 67.5 mg bid, Week 52, BL TFC≥7, p value 0.0598): 0.22
- Change from baseline in UHDRS TFC ADL, Δ to Placebo ([2]; 67.5 mg bid, Week 52, Stage 1 BL TFC 11-13): 0.21
- Change from baseline in UHDRS TFC ADL, Δ to Placebo ([2]; 67.5 mg bid, Week 52, Stage 2 BL TFC 7-10): 0.31
- Change from baseline in UHDRS TFC ADL, Δ to Placebo ([2]; 90 mg bid, Week 26, ALL): 0.14
- UHDRS TFC ADL, change from baseline, Δ to placebo ([2]; 90 mg bid, Week 26, BL TFC<7, p value 0.3507): 0.18
- UHDRS TFC ADL, change from baseline, Δ to placebo ([2]; 90 mg bid, Week 26, BL TFC≥7, p value 0.0526): 0.19
- Change from baseline in UHDRS TFC ADL, Δ to Placebo ([2]; 90 mg bid, Week 26, Stage 1 BL TFC 11-13): 0.58
- Change from baseline in UHDRS TFC ADL, Δ to Placebo ([2]; 90 mg bid, Week 52, ALL): −0.01
- UHDRS TFC ADL, change from baseline, Δ to placebo ([2]; 90 mg bid, Week 52, BL TFC<7, p value 0.073): −0.39
- UHDRS TFC ADL, change from baseline, Wk 52 Δ to placebo ([2]; 90 mg bid, Week 52, BL TFC≥7, p value 0.0545): 0.21
- Change from baseline in UHDRS TFC ADL, Δ to Placebo ([2]; 90 mg bid, Week 52, Stage 1 BL TFC 11-13): 0.42
- Change from baseline in UHDRS TFC ADL, Δ to Placebo ([2]; 90 mg bid, Week 52, Stage 2 BL TFC 7-10): 0.16
- Change from baseline in UHDRS TFC ADL, Δ to Placebo ([2]; 112.5 mg bid, Week 26, ALL): 0.17
- UHDRS TFC ADL, change from baseline, Δ to placebo ([2]; 112.5 mg bid, Week 26, BL TFC<7, p value 0.8438): −0.04
- UHDRS TFC ADL, change from baseline, Δ to placebo ([2]; 112.5 mg bid, Week 26, BL TFC≥7, p value 0.0076): 0.27
- Change from baseline in UHDRS TFC ADL, Δ to Placebo ([2]; 112.5 mg bid, Week 26, Stage 1 BL TFC 11-13): 0.7
- Change from baseline in UHDRS TFC ADL, Δ to Placebo ([2]; 112.5 mg bid, Week 52, ALL): 0.03
- UHDRS TFC ADL, change from baseline, Δ to placebo ([2]; 112.5 mg bid, Week 52, BL TFC<7, p value 0.1393): −0.32
- UHDRS TFC ADL, change from baseline, Wk 52 Δ to placebo ([2]; 112.5 mg bid, Week 52, BL TFC≥7, p value 0.0493): 0.23
- Change from baseline in UHDRS TFC ADL, Δ to Placebo ([2]; 112.5 mg bid, Week 52, Stage 1 BL TFC 11-13): 0.46
- Change from baseline in UHDRS TFC ADL, Δ to Placebo ([2]; 112.5 mg bid, Week 52, Stage 2 BL TFC 7-10): 0.15
- TFC Care Level, Δ to placebo ([3]; 45 mg bid): 0.12
- Change from baseline in UHDRS TFC Care Level, Δ to placebo ([3]; 45 mg bid, ALL): 0.09
- Change from baseline in UHDRS TFC Care Level, Δ to placebo ([3]; 45 mg bid, Stage 2 BL TFC 7-10): 0.13
- TFC Care Level, Δ to placebo ([3]; 67.5 mg bid): 0.09
- Change from baseline in UHDRS TFC Care Level, Δ to placebo ([3]; 67.5 mg bid, ALL): 0
- Change from baseline in UHDRS TFC Care Level, Δ to placebo [3, 5]: 0.12
- TFC Care Level, Δ to placebo ([3]; 90 mg bid): 0.08
- Change from baseline in UHDRS TFC Care Level, Δ to placebo ([3]; 90 mg bid, ALL): −0.08
- Change from baseline in UHDRS TFC Care Level, Δ to placebo ([3]; 90 mg bid, Stage 2 BL TFC 7-10): 0.1
- TFC Care Level, Δ to placebo ([3]; 112.5 mg bid): 0.04
- Change from baseline in UHDRS TFC Care Level, Δ to placebo ([3]; 112.5 mg bid, ALL): −0.03
- Change from baseline in UHDRS TFC Care Level, Δ to placebo [3, 6]: 0.03
- Change from baseline in HD-QoL Participant Total Score, Δ to placebo ([4]; 45 mg bid, ALL): 1.91
- HD-QoL Participant Total Score, change from baseline, Δ to placebo ([4]; 45 mg bid, BL TFC<7, p value 0.6958): 4.87
- HD-QoL Participant Total Score, change from baseline, Δ to placebo ([4]; 45 mg bid, BL TFC≥7, p value 0.9144): 0.51
- Change from baseline in HD-QoL Participant Total Score, Δ to placebo ([4]; 45 mg bid, Stage 2 BL TFC 7-10): 3.22
- Change from baseline in HD-QoL Participant Total Score, Δ to placebo ([4]; 67.5 mg bid, ALL): 8.7
- HD-QoL Participant Total Score, change from baseline, Δ to placebo ([4]; 67.5 mg bid, BL TFC<7, p value 0.9304): 1
- HD-QoL Participant Total Score, change from baseline, Δ to placebo ([4]; 67.5 mg bid, BL TFC≥7, p value 0.0284): 10.63
- Change from baseline in HD-QoL Participant Total Score, Δ to placebo [4, 5]: 16.33
- Change from baseline in HD-QoL Participant Total Score, Δ to placebo ([4]; 90 mg bid, ALL): 6.95
- HD-QoL Participant Total Score, change from baseline, Δ to placebo ([4]; 90 mg bid, BL TFC<7, p value 0.817): 2.61
- HD-QoL Participant Total Score, change from baseline, Δ to placebo ([4]; 90 mg bid, BL TFC≥7, p value 0.2834): 5.17
- Change from baseline in HD-QoL Participant Total Score, Δ to placebo ([4]; 90 mg bid, Stage 2 BL TFC 7-10): 10.64
- Change from baseline in HD-QoL Participant Total Score, Δ to placebo ([4]; 112.5 mg bid, ALL): −1.36
- HD-QoL Participant Total Score, change from baseline, Δ to placebo ([4]; 112.5 mg bid, BL TFC<7, p value 0.7016): −4.33
- HD-QoL Participant Total Score, change from baseline, Δ to placebo ([4]; 112.5 mg bid, BL TFC≥7, p value 0.8365): −0.99
- Change from baseline in HD-QoL Participant Total Score, Δ to placebo [4, 6]: 4.29
